# Test results: patent US6355799B1, “Substituted benzene compounds, process for their preparation, and herbicidal and defoliant compositions containing them” (ISK Americas Incorporated, priority 1997, dated 2002)
# Columns and labels:
# Format in all cases: in vivo
# [1] = tested on: field corn (Zea mays L., var. Dekalb 535, CORN); assay: Post-emerge test, crop safety; conditions: rating scale 0-100 (0 no damage, 100 complete death), 14 days after application
# How it was run: (§1)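 Sandy loam pots; pre-emerge: sown 1 d pre-spray, surface-watered after, then bottom-watered. Post-emerge: sown 8–21 d before, 2–3 leaf stage, + 0.25% v/v NIS, bottom-watered. Acetone, 187 l/ha track spray, 15–1000 g ai/ha. 0–100 injury score, day 14.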
# [2] = tested on: upland rice (Oryza sp., var. Tebonnet, RICE); assay: Post-emerge test, crop safety; conditions: rating scale 0-100 (0 no damage, 100 complete death), 14 days after application
# How it was run: as §1
# [3] = tested on: field corn (Zea mays L., var. Dekalb 535, CORN); assay: Pre-emerge test, crop safety; conditions: rating scale 0-100, 14 days after application
# How it was run: (§2)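 Herbicidal damage is scored 0 (none) to 100 (complete plant death) two weeks after a simulated field spray. Rates span 15–1000 g ai/ha, delivered in acetone at 187 l/ha. For post-emergence treatments, plants have 2–3 leaves and the spray carries 0.25% v/v non-ionic surfactant.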
# [4] = tested on: upland rice (Oryza sp., var. Tebonnet, RICE); assay: Pre-emerge test, crop safety; conditions: rating scale 0-100, 14 days after application
# How it was run: as §2
# [5] = tested on: johnsongrass (Sorghum halepense, SORHA); assay: Post-emerge test, greenhouse herbicide activity screening; conditions: rating scale 0-100 (0 no damage, 100 complete death), 14 days after application
# How it was run: (§3)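 Compounds in acetone were track-sprayed at 15–1000 g ai/ha: pre-emergence onto soil sown the previous day, then top-watered to incorporate and later bottom-watered; post-emergence onto 2–3 leaf plants with 0.25% v/v surfactant, bottom-watered only. Ratings on a 0–100 phytotoxicity scale were taken at day 14.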
# [6] = tested on: redroot pigweed (Amaranthus retroflexus, AMARE); assay: as above; conditions: rating scale 0-100 (0 no damage, 100 complete death), 14 days after application
# How it was run: as §3
# [7] = tested on: velvetleaf (Abutilon theophrasti, ABUTH); assay: as above; conditions: rating scale 0-100 (0 no damage, 100 complete death), 14 days after application
# How it was run: as §3
# [8] = tested on: green foxtail (Setaria viridis, SETVI); assay: as above; conditions: rating scale 0-100 (0 no damage, 100 complete death), 14 days after application
# How it was run: as §3
# [9] = tested on: lambsquarters (Chenopodium album, CHEAL); assay: as above; conditions: rating scale 0-100 (0 no damage, 100 complete death), 14 days after application
# How it was run: as §3
# [10] = tested on: ivyleaf morningglory (Ipomoea hederacea, IPOHE); assay: as above; conditions: rating scale 0-100 (0 no damage, 100 complete death), 14 days after application
# How it was run: as §3
# [11] = tested on: large crabgrass (Digitaria sanguinalis, DIGSA); assay: as above; conditions: rating scale 0-100 (0 no damage, 100 complete death), 14 days after application
# How it was run: as §3
# [12] = tested on: sicklepod (Cassia obtusifolia, CASOB); assay: as above; conditions: rating scale 0-100 (0 no damage, 100 complete death), 14 days after application
# How it was run: as §3
# [13] = tested on: barnyardgrass (Echinochloa crus-galli, ECHCG); assay: as above; conditions: rating scale 0-100 (0 no damage, 100 complete death), 14 days after application
# How it was run: as §3
# [14] = tested on: johnsongrass (Sorghum halepense, SORHA); assay: Pre-emerge test, greenhouse herbicide activity screening; conditions: rating scale 0-100, 14 days after application
# How it was run: as §1
# [15] = tested on: velvetleaf (Abutilon theophrasti, ABUTH); assay: as above; conditions: rating scale 0-100, 14 days after application
# How it was run: as §1
# [16] = tested on: green foxtail (Setaria viridis, SETVI); assay: as above; conditions: rating scale 0-100, 14 days after application
# How it was run: as §1
# [17] = tested on: lambsquarters (Chenopodium album, CHEAL); assay: as above; conditions: rating scale 0-100, 14 days after application
# How it was run: as §1
# [18] = tested on: ivyleaf morningglory (Ipomoea hederacea, IPOHE); assay: as above; conditions: rating scale 0-100, 14 days after application
# How it was run: as §1
# [19] = tested on: common ragweed (Ambrosia artemisizfolia L., AMBEL); assay: as above; conditions: rating scale 0-100, 14 days after application
# How it was run: as §1
# [20] = tested on: large crabgrass (Digitaria sanguinalis, DIGSA); assay: as above; conditions: rating scale 0-100, 14 days after application
# How it was run: as §1
# [21] = tested on: sicklepod (Cassia obtusifolia, CASOB); assay: as above; conditions: rating scale 0-100, 14 days after application
# How it was run: as §1
# [22] = tested on: barnyardgrass (Echinochloa crus-galli, ECHCG); assay: as above; conditions: rating scale 0-100, 14 days after application
# How it was run: as §1
# [23] = tested on: redroot pigweed (Amaranthus retroflexus, AMARE); assay: as above; conditions: rating scale 0-100, 14 days after application
# How it was run: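 Visual ratings on a 0-100 scale (0 no damage, 100 all plants dead) were taken at 14 days after treatment. Rates of 15-1000 g ai/ha in acetone, 187 l/ha, were sprayed onto soil one day after planting (pre-emerge) or onto 2-3 leaf plants with 0.25% v/v surfactant (post-emerge).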
smiles,measurement,setting,value
"CCCCCOC(=O)C(Cl)Cc1c(OC)c(Cl)cc(F)c1-n1c(=O)cc(C(F)(F)F)n(C)c1=O (single isomer, unassigned) [14-11]",Post-emerge phytotoxicity rating CORN (crop damage),[1]; Rate 63 g ai/ha,100
same,Post-emerge phytotoxicity rating CORN (crop damage),[1]; Rate 250 g ai/ha,100
same,Post-emerge phytotoxicity rating RICE (crop damage),[2]; Rate 63 g ai/ha,10
same,Post-emerge phytotoxicity rating RICE (crop damage),[2]; Rate 250 g ai/ha,20
same,"Pre-emerge phytotoxicity rating, crop damage CORN",[3]; 63 g ai/ha,0
same,"Pre-emerge phytotoxicity rating, crop damage CORN",[3]; 250 g ai/ha,0
same,"Pre-emerge phytotoxicity rating, crop damage RICE",[4]; 63 g ai/ha,0
same,"Pre-emerge phytotoxicity rating, crop damage RICE",[4]; 250 g ai/ha,0
same,"Post-emerge Herbicidal Activity, phytotoxicity rating SORHA",[5]; Rate 63 g ai/ha,50
same,"Post-emerge Herbicidal Activity, phytotoxicity rating SORHA",[5]; Rate 250 g ai/ha,99
same,"Post-emerge Herbicidal Activity, phytotoxicity rating AMARE",[6]; Rate 63 g ai/ha,95
same,"Post-emerge Herbicidal Activity, phytotoxicity rating AMARE",[6]; Rate 250 g ai/ha,100
same,"Post-emerge Herbicidal Activity, phytotoxicity rating ABUTH",[7]; Rate 63 g ai/ha,80
same,"Post-emerge Herbicidal Activity, phytotoxicity rating ABUTH",[7]; Rate 250 g ai/ha,100
same,"Post-emerge Herbicidal Activity, phytotoxicity rating SETVI",[8]; Rate 63 g ai/ha,80
same,"Post-emerge Herbicidal Activity, phytotoxicity rating SETVI",[8]; Rate 250 g ai/ha,100
same,"Post-emerge Herbicidal Activity, phytotoxicity rating CHEAL",[9]; Rate 63 g ai/ha,50
same,"Post-emerge Herbicidal Activity, phytotoxicity rating CHEAL",[9]; Rate 250 g ai/ha,100
same,"Post-emerge Herbicidal Activity, phytotoxicity rating IPOHE",[10]; Rate 63 g ai/ha,90
same,"Post-emerge Herbicidal Activity, phytotoxicity rating IPOHE",[10]; Rate 250 g ai/ha,100
same,"Post-emerge Herbicidal Activity, phytotoxicity rating DIGSA",[11]; Rate 63 g ai/ha,99
same,"Post-emerge Herbicidal Activity, phytotoxicity rating DIGSA",[11]; Rate 250 g ai/ha,100
same,"Post-emerge Herbicidal Activity, phytotoxicity rating CASOB",[12]; Rate 63 g ai/ha,50
same,"Post-emerge Herbicidal Activity, phytotoxicity rating CASOB",[12]; Rate 250 g ai/ha,70
same,"Post-emerge Herbicidal Activity, phytotoxicity rating ECHCG",[13]; Rate 63 g ai/ha,100
same,"Post-emerge Herbicidal Activity, phytotoxicity rating ECHCG",[13]; Rate 250 g ai/ha,100
same,"Pre-emerge herbicidal activity, phytotoxicity rating SORHA",[14]; 63 g ai/ha,0
same,"Pre-emerge herbicidal activity, phytotoxicity rating SORHA",[14]; 250 g ai/ha,0
same,"Pre-emerge herbicidal activity, phytotoxicity rating ABUTH",[15]; 63 g ai/ha,50
same,"Pre-emerge herbicidal activity, phytotoxicity rating ABUTH",[15]; 250 g ai/ha,100
same,"Pre-emerge herbicidal activity, phytotoxicity rating SETVI",[16]; 63 g ai/ha,0
same,"Pre-emerge herbicidal activity, phytotoxicity rating SETVI",[16]; 250 g ai/ha,50
same,"Pre-emerge herbicidal activity, phytotoxicity rating CHEAL",[17]; 63 g ai/ha,70
same,"Pre-emerge herbicidal activity, phytotoxicity rating CHEAL",[17]; 250 g ai/ha,100
same,"Pre-emerge herbicidal activity, phytotoxicity rating IPOHE",[18]; 63 g ai/ha,30
same,"Pre-emerge herbicidal activity, phytotoxicity rating IPOHE",[18]; 250 g ai/ha,50
same,"Pre-emerge herbicidal activity, phytotoxicity rating AMBEL",[19]; 63 g ai/ha,0
same,"Pre-emerge herbicidal activity, phytotoxicity rating AMBEL",[19]; 250 g ai/ha,100
same,"Pre-emerge herbicidal activity, phytotoxicity rating DIGSA",[20]; 63 g ai/ha,50
same,"Pre-emerge herbicidal activity, phytotoxicity rating DIGSA",[20]; 250 g ai/ha,100
same,"Pre-emerge herbicidal activity, phytotoxicity rating CASOB",[21]; 63 g ai/ha,0
same,"Pre-emerge herbicidal activity, phytotoxicity rating CASOB",[21]; 250 g ai/ha,0
same,"Pre-emerge herbicidal activity, phytotoxicity rating ECHCG",[22]; 63 g ai/ha,0
same,"Pre-emerge herbicidal activity, phytotoxicity rating ECHCG",[22]; 250 g ai/ha,0
same,"Pre-emerge herbicidal activity, phytotoxicity rating AMARE",[23]; 63 g ai/ha,100
same,"Pre-emerge herbicidal activity, phytotoxicity rating AMARE",[23]; 250 g ai/ha,100
